Toxic doses and inconclusive results are not listed. Rule as the data show it: active = T/C of 150% or more; inactive = T/C below 125%.
System: L1210 leukemia ip in BDF1 mice, survival T/C
Assay: NCI In Vivo Anticancer Drug Screen. Data for tumor model L1210 Leukemia (intraperitoneal) in B6D2F1 (BDF1) mice
Details: endpoint: mean survival time, higher = longer survival
Summary of the method: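 In this screen, tumor-bearing mice given compound are compared to those given vehicle, and their survival values are reported as a treated-to-control quotient.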

[1] = dose: 100.0 mg/kg/injection, schedule: Q01DX009 (ip), vehicle: Klucel (hydroxypropylcellulose) (HPC)
[2] = dose: 200.0 mg/kg/injection, schedule: Q01DX009 (ip), vehicle: Klucel (hydroxypropylcellulose) (HPC)
[3] = dose: 100.0 mg/kg/injection, schedule: Q01DX001 (ip), vehicle: saline
[4] = dose: 200.0 mg/kg/injection, schedule: Q01DX001 (ip), vehicle: saline
[5] = dose: 400.0 mg/kg/injection, schedule: Q01DX009 (ip), vehicle: Klucel (hydroxypropylcellulose) (HPC)
[6] = dose: 100.0 mg/kg/injection, schedule: Q04DX003 (ip), vehicle: saline with Tween-80
[7] = dose: 200.0 mg/kg/injection, schedule: Q04DX003 (ip), vehicle: saline with Tween-80
[8] = dose: 400.0 mg/kg/injection, schedule: Q04DX003 (ip), vehicle: saline with Tween-80
[9] = dose: 100.0 mg/kg/injection, schedule: Q04DX003 (ip), vehicle: saline
[10] = dose: 200.0 mg/kg/injection, schedule: Q04DX003 (ip), vehicle: saline
[11] = dose: 400.0 mg/kg/injection, schedule: Q04DX003 (ip), vehicle: saline

Measured: T/C

CC[C@@H](C(=O)[C@@H](C)[C@@H](O)[C@H](C)CCc1ccc(C)c(O)c1C(=O)O)[C@H]1O[C@](CC)([C@H]2CC[C@](O)(CC)[C@H](C)O2)C[C@@H]1C
inactive: dose: 3.12 mg/kg/injection, schedule: Q01DX009 (ip), vehicle: Klucel (hydroxypropylcellulose) (HPC) 93 % of control | dose: 6.25 mg/kg/injection, schedule: Q01DX009 (ip), vehicle: Klucel (hydroxypropylcellulose) (HPC) 96 % of control | dose: 12.5 mg/kg/injection, schedule: Q01DX009 (ip), vehicle: Klucel (hydroxypropylcellulose) (HPC) 94 % of control | dose: 25.0 mg/kg/injection, schedule: Q01DX009 (ip), vehicle: Klucel (hydroxypropylcellulose) (HPC) 94 % of control

O=C(Nc1ccc(CCC2=NCCCN2)cc1)c1ccc(C(=O)Nc2ccc(CCC3=NCCCN3)cc2)cc1
inactive: dose: 60.0 mg/kg/injection, schedule: Q01DX Z (ip), vehicle: saline 118 % of control | dose: 120.0 mg/kg/injection, schedule: Q01DX Z (ip), vehicle: saline 110 % of control | dose: 240.0 mg/kg/injection, schedule: Q01DX Z (ip), vehicle: saline 112 % of control

CCCCCCCCC(=O)N1CC1
inactive: dose: 50.0 mg/kg/injection, schedule: Q01DX009 (ip), vehicle: Klucel (hydroxypropylcellulose) (HPC) 94 % of control | dose: 50.0 mg/kg/injection, schedule: Q04DX003 (ip), vehicle: Klucel (hydroxypropylcellulose) (HPC) 105 % of control | [1] 94 % of control | dose: 100.0 mg/kg/injection, schedule: Q04DX003 (ip), vehicle: Klucel (hydroxypropylcellulose) (HPC) 96 % of control | [2] 96 % of control | dose: 200.0 mg/kg/injection, schedule: Q04DX003 (ip), vehicle: Klucel (hydroxypropylcellulose) (HPC) 98 % of control

CCN(N=O)C(=O)NC1C(O)OC(CO)C(O)C1O (centres undefined)
inactive: dose: 25.0 mg/kg/injection, schedule: Q01DX009 (ip), vehicle: other 100 % of control | dose: 50.0 mg/kg/injection, schedule: Q01DX009 (ip), vehicle: other 118 % of control | dose: 100.0 mg/kg/injection, schedule: Q01DX009 (ip), vehicle: other 113 % of control | dose: 200.0 mg/kg/injection, schedule: Q01DX009 (ip), vehicle: other 112 % of control

COc1cc2c(cc1Cl)nc1c(=O)[nH]c(=O)nc-1n2CCN1CCCC1
inactive: dose: 8.7 mg/kg/injection, schedule: Q01DX Z (ip), vehicle: methylcellulose (MC) 97 % of control | dose: 17.5 mg/kg/injection, schedule: Q01DX Z (ip), vehicle: methylcellulose (MC) 94 % of control | dose: 70.0 mg/kg/injection, schedule: Q01DX Z (ip), vehicle: methylcellulose (MC) 114 % of control

COC(CNCc1ccccc1)OC
inactive: dose: 75.0 mg/kg/injection, schedule: Q01DX001 (ip), vehicle: steriod suspending solution 101 % of control | dose: 150.0 mg/kg/injection, schedule: Q01DX001 (ip), vehicle: steriod suspending solution 102 % of control

Fc1c(F)c(F)c(/C=N/Nc2nnc(N/N=C/c3c(F)c(F)c(F)c(F)c3F)c3ccccc23)c(F)c1F
inactive: dose: 50.0 mg/kg/injection, schedule: Q01DX001 (ip), vehicle: carboxymethylcellulose (CMC) 93 % of control | dose: 100.0 mg/kg/injection, schedule: Q01DX001 (ip), vehicle: carboxymethylcellulose (CMC) 95 % of control | dose: 200.0 mg/kg/injection, schedule: Q01DX001 (ip), vehicle: carboxymethylcellulose (CMC) 98 % of control | dose: 400.0 mg/kg/injection, schedule: Q01DX001 (ip), vehicle: carboxymethylcellulose (CMC) 95 % of control

O=[N+]([O-])c1ccc(O)c(/C=N/Nc2c3ccccc3nc3ccccc23)c1
inactive: [3] 103 % of control | [4] 95 % of control | dose: 400.0 mg/kg/injection, schedule: Q01DX001 (ip), vehicle: saline 92 % of control

O=S(=O)(Nc1nccs1)c1ccc(NN=Nc2c(Cl)cc(Cl)cc2Cl)cc1
inactive: [1] 96 % of control | [2] 96 % of control | [5] 97 % of control

CN(C)C(=O)Nc1ccc(Cc2ccc(NC(=O)N(C)C)cc2)cc1
inactive: [1] 96 % of control | [2] 92 % of control | [5] 96 % of control

CCCCC(NC(=O)CNC(=O)OCc1ccccc1)C(=O)OC (centres undefined)
inactive: [6] 108 % of control | [7] 100 % of control | [8] 93 % of control

NC(=O)C(c1ccccc1)c1ccccc1
inactive: [6] 93 % of control | [7] 100 % of control | [8] 94 % of control

CCOC(=O)CCC(NC(=O)c1ccc(NCc2nnc3nc(N)n4nnnc4c3n2)cc1)C(=O)OCC (centres undefined)
inactive: dose: 25.0 mg/kg/injection, schedule: Q01DX001 (ip), vehicle: saline with Tween-80 96 % of control | dose: 50.0 mg/kg/injection, schedule: Q01DX001 (ip), vehicle: saline with Tween-80 109 % of control | dose: 100.0 mg/kg/injection, schedule: Q01DX001 (ip), vehicle: saline with Tween-80 100 % of control

CN(C)c1ccc(C(=O)O)cn1
inactive: dose: 100.0 mg/kg/injection, schedule: Q01DX009 (ip), vehicle: saline with Tween-80 96 % of control | [9] 100 % of control | dose: 200.0 mg/kg/injection, schedule: Q01DX009 (ip), vehicle: saline with Tween-80 105 % of control | [10] 100 % of control | dose: 400.0 mg/kg/injection, schedule: Q01DX009 (ip), vehicle: saline with Tween-80 102 % of control | [11] 100 % of control

CC(=O)OC1CCC2(C)C(=CCC3C2CCC2(C)C3CC3OC4(CCC(C)CO4)C(C)C32)C1 (centres undefined)
inactive: [1] 98 % of control | [2] 96 % of control | [5] 95 % of control

CNC(N)=S
inactive: [9] 99 % of control | [10] 94 % of control | [11] 97 % of control

CCCCCCCCCC(=O)N1CCC(C)CC1
inactive: dose: 100.0 mg/kg/injection, schedule: Q04DX002 (ip), vehicle: saline 111 % of control | dose: 200.0 mg/kg/injection, schedule: Q04DX002 (ip), vehicle: saline 104 % of control | dose: 400.0 mg/kg/injection, schedule: Q04DX002 (ip), vehicle: saline 101 % of control

Cc1ccc(S(=O)(=O)NCCC(=N)N)cc1
inactive: [3] 93 % of control | [4] 101 % of control

N=c1c2ccccc2nnn1-c1ccccc1[N+](=O)[O-]
inactive: dose: 75.0 mg/kg/injection, schedule: Q01DX001 (ip), vehicle: other 92 % of control | dose: 150.0 mg/kg/injection, schedule: Q01DX001 (ip), vehicle: other 99 % of control | dose: 300.0 mg/kg/injection, schedule: Q01DX001 (ip), vehicle: other 92 % of control

[Cl][Hg][c]1ccccc1N=Nc1ccccc1
inactive: dose: 3.0 mg/kg/injection, schedule: Q01DX009 (ip), vehicle: saline with Tween-80 90 % of control | dose: 6.0 mg/kg/injection, schedule: Q01DX009 (ip), vehicle: saline with Tween-80 101 % of control | dose: 12.0 mg/kg/injection, schedule: Q01DX009 (ip), vehicle: saline with Tween-80 98 % of control | dose: 12.5 mg/kg/injection, schedule: Q01DX009 (ip), vehicle: saline with Tween-80 100 % of control

CCOC(=O)C1OC1(C)c1ccccc1 (centres undefined)
inactive: dose: 100.0 mg/kg/injection, schedule: Q01DX009 (ip), vehicle: saline 102 % of control | [9] 100 % of control | dose: 200.0 mg/kg/injection, schedule: Q01DX009 (ip), vehicle: saline 100 % of control | [10] 94 % of control | dose: 400.0 mg/kg/injection, schedule: Q01DX009 (ip), vehicle: saline 102 % of control | [11] 107 % of control

Source: PubChem BioAssay AID248 (DTP/NCI, 2004)
